According to article PMC10734772 (Turkish Journal of Chemistry, 2021):

Columns and labels:
Type in all cases: cell-based
Jurkat = experiment: MTT assay, Jurkat cells; conditions: Homo sapiens, 24 h, read-out: Viability rate
[1] = test system: K562, Nalm-6, Molt-4, Reh, Jurkat, Hek293T cell lines; experiment: MTT assay, overall judgement over all cell lines; conditions: overall judgement in words; for 6 and 10: on all cell lines, except Reh
Protocol: To evaluate in-vitro anti-cancer activity of the newly synthesized compounds, they were tested by using the MTT assay in the BCR-ABL positive leukemic cell line (K562), BCR-ABL negative leukemic cell lines (Nalm-6, Molt-4, Reh and Jurkat), and non-leukemic human embryonic kidney tissue (Hek293T) cell line. […] The viability rate of each concentration was calculated by the formula stated in material and methods, the viability rate results for each cell were presented in Table S2 and Figure S44.

Molt-4 = experiment: MTT assay, Molt-4 cells; conditions: Homo sapiens, MOLT-4, 24 h, read-out: Viability rate
Reh = experiment: MTT assay, Reh cells; conditions: Homo sapiens, 24 h, read-out: Viability rate
[2] = MTT assay, Hek293T non-leukemic control cells; conditions: human, read-out: Viability rate
Nalm-6 = experiment: MTT assay, Nalm-6 cells; conditions: Homo sapiens, 24 h, MTT, read-out: Viability rate
Protocol: K562, Jurkat and Molt-4 cell lines were seeded as 4x10^5/ml, Reh and Nalm-6 cell lines were seeded 5x10^5/ml, Hek293T cell line was seed as 2x10^5/ml.
MTT assay is a 3-day test. On the first day, cell count was performed in Bio Rad TC-20 device with the help of trypan blue, each cell line was prepared by diluting to the specified concentrations and seeded in a 96-well plate as 100μL to each well and incubated for 1 day.
On the second day, stock solutions were subsequently diluted to various concentrations (0.3–200 μM) with related medium prior to experiments. Specified concentrations of the compounds were seeded in a 96-well plate as 100μL to each well and incubated for 24 h.
After incubation (on the third day), to precipitate leukemia cells, the cell plate was centrifuged at 1500 rpm for 5 min. […] The 50 μl of supernatant was discarded from each well and 100 μl of DMSO was added to dissolve the formazan. Plates were shaken for 45 min to dissolve the dye. Then the optical density of each well was measured by using Thermo VarioSkan Flush Multimode Reader Quantum ST5-1100 at 570 nm wavelength.
Subsequently, viability rate of the cells at each concentration, as percentage, was determined by following formula (1):
Viability rate (%)=100-[(OD(control)-OD(sample))/OD(control)×100].OD=Optical Density
The IC50 values were calculated by using GraphPad Prism. All the data presented as the mean of 6 replicates. […] Statistical analysis was performed using dose-response inhibition, log(inhibitor) vs response-variable slope, least squares (ordinary) fit.

K562 = experiment: MTT assay, K562 cells; conditions: Homo sapiens, 24 h, MTT, read-out: Viability rate

Q: With `Cc1ccc(NC(=O)c2ccc(CN3CCN(c4ncccn4)CC3)cc2)cc1Nc1cnccn1` [Compound 7, N-(4-Methyl-3-(pyrazin-2-ylamino)phenyl)-4-((4-(pyrimidin-2-yl)piperazin-1-yl)methyl)benzamide] as the compound, how does the viability at 0.3 µM (Jurkat; 0.3 μM) read?
A: 77.4 ± 0.09%

Q: What about the viability at 0.5 µM (Jurkat; 0.5 μM) of the same compound?
A: 77.3 ± 0.07%

Q: And the viability at 1 µM (Jurkat; 1 μM)?
A: 75.7 ± 0.03%

Q: And the viability at 3 µM (Jurkat; 3 μM)?
A: 75.5 ± 0.05%

Q: And the viability at 5 µM (Jurkat; 5 μM)?
A: 75.6 ± 0.03%

Q: And the viability at 10 µM (Jurkat; 10 μM)?
A: 74.6 ± 0.06%

Q: What about the viability at 15 µM (Jurkat; 15 μM) of the same compound?
A: 74.2 ± 0.05%

Q: What about the viability at 20 µM (Jurkat; 20 μM) of the same compound?
A: 74 ± 0.06%

Q: And the viability at 30 µM (Jurkat; 30 μM)?
A: 73.2 ± 0.07%

Q: What about the viability at 50 µM (Jurkat; 50 μM) of the same compound?
A: 72.8 ± 0.03%

Q: And the viability at 70 µM (Jurkat; 70 μM)?
A: 72.8 ± 0.03%

Q: What about the viability at 100 µM (Jurkat; 100 μM) of the same compound?
A: 72.7 ± 0.04%

Q: And the viability at 150 µM (Jurkat; 150 μM)?
A: 72.4 ± 0.09%

Q: What about the viability at 200 µM (Jurkat; 200 μM) of the same compound?
A: 72.1 ± 0.06%

Q: And the “anticancer activity according to MTT assay results” value [1]?
A: very poor activity

Q: What about the viability at 0.3 µM (Molt-4; Molt-4, 0.3 μM) of the same compound?
A: 93.3 ± 0.16%

Q: What about the viability at 0.5 µM (Molt-4; Molt-4, 0.5 μM) of the same compound?
A: 93.8 ± 0.08%

Q: And the viability at 1 µM (Molt-4; Molt-4, 1 μM)?
A: 89.8 ± 0.07%

Q: And the viability at 3 µM (Molt-4; Molt-4, 3 μM)?
A: 89.6 ± 0.12%

Q: And the viability at 5 µM (Molt-4; Molt-4, 5 μM)?
A: 89.7 ± 0.08%

Q: And the viability at 10 µM (Molt-4; Molt-4, 10 μM)?
A: 89.5 ± 0.06%

Q: And the viability at 15 µM (Molt-4; Molt-4, 15 μM)?
A: 90.3 ± 0.04%

Q: What about the viability at 20 µM (Molt-4; Molt-4, 20 μM) of the same compound?
A: 90.2 ± 0.06%

Q: And the viability at 30 µM (Molt-4; Molt-4, 30 μM)?
A: 90.9 ± 0.06%

Q: And the viability at 50 µM (Molt-4; Molt-4, 50 μM)?
A: 92.2 ± 0.05%

Q: What about the viability at 70 µM (Molt-4; Molt-4, 70 μM) of the same compound?
A: 90.6 ± 0.06%

Q: What about the viability at 100 µM (Molt-4; Molt-4, 100 μM) of the same compound?
A: 85.5 ± 0.06%

Q: What about the viability at 150 µM (Molt-4; Molt-4, 150 μM) of the same compound?
A: 90.4 ± 0.04%

Q: And the viability at 200 µM (Molt-4; Molt-4, 200 μM)?
A: 89.8 ± 0.07%

Q: What about the viability at 0.3 µM (Reh; 0.3 μM) of the same compound?
A: 110 ± 0.02%

Q: And the viability at 0.5 µM (Reh; 0.5 μM)?
A: 109.8 ± 0.02%

Q: And the viability at 1 µM (Reh; 1 μM)?
A: 108.7 ± 0.02%

Q: What about the viability at 3 µM (Reh; 3 μM) of the same compound?
A: 103.4 ± 0.02%

Q: What about the viability at 5 µM (Reh; 5 μM) of the same compound?
A: 108.8 ± 0.02%

Q: What about the viability at 10 µM (Reh; 10 μM) of the same compound?
A: 106.5 ± 0.05%

Q: What about the viability at 15 µM (Reh; 15 μM) of the same compound?
A: 100.2 ± 0.02%

Q: What about the viability at 20 µM (Reh; 20 μM) of the same compound?
A: 95.5 ± 0.06%

Q: What about the viability at 30 µM (Reh; 30 μM) of the same compound?
A: 85.4 ± 0.02%

Q: And the viability at 50 µM (Reh; 50 μM)?
A: 66.7 ± 0.02%

Q: What about the viability at 70 µM (Reh; 70 μM) of the same compound?
A: 66.2 ± 0.03%

Q: And the viability at 100 µM (Reh; 100 μM)?
A: 67.7 ± 0.03%

Q: And the viability at 150 µM (Reh; 150 μM)?
A: 66.8 ± 0.02%

Q: What about the viability at 200 µM (Reh; 200 μM) of the same compound?
A: 62.8 ± 0.02%

Q: And the viability at 24 h, 0.3 µM ([2]; Hek293T cells (non-leukemic control cell line), 0.3 μM)?
A: 87.7 ± 0.06%

Q: What about the viability at 24 h, 0.5 µM ([2]; Hek293T cells (non-leukemic control cell line), 0.5 μM) of the same compound?
A: 87.6 ± 0.07%

Q: What about the viability at 24 h, 3 µM ([2]; Hek293T cells (non-leukemic control cell line), 3 μM) of the same compound?
A: 84.6 ± 0.05%

Q: And the viability at 24 h, 5 µM ([2]; Hek293T cells (non-leukemic control cell line), 5 μM)?
A: 81 ± 0.09%

Q: What about the viability at 24 h, 10 µM ([2]; Hek293T cells (non-leukemic control cell line), 10 μM) of the same compound?
A: 80.5 ± 0.06%

Q: What about the viability at 24 h, 15 µM ([2]; Hek293T cells (non-leukemic control cell line), 15 μM) of the same compound?
A: 80.3 ± 0.04%

Q: What about the viability at 24 h, 20 µM ([2]; Hek293T cells (non-leukemic control cell line), 20 μM) of the same compound?
A: 76 ± 0.03%

Q: And the viability at 24 h, 30 µM ([2]; Hek293T cells (non-leukemic control cell line), 30 μM)?
A: 72.1 ± 0.02%

Q: What about the viability at 24 h, 50 µM ([2]; Hek293T cells (non-leukemic control cell line), 50 μM) of the same compound?
A: 64.5 ± 0.02%

Q: And the viability at 24 h, 70 µM ([2]; Hek293T cells (non-leukemic control cell line), 70 μM)?
A: 64.2 ± 0.02%

Q: And the viability at 24 h, 100 µM ([2]; Hek293T cells (non-leukemic control cell line), 100 μM)?
A: 63.5 ± 0.07%

Q: And the viability at 24 h, 150 µM ([2]; Hek293T cells (non-leukemic control cell line), 150 μM)?
A: 60.8 ± 0.03%

Q: And the viability at 24 h, 200 µM ([2]; Hek293T cells (non-leukemic control cell line), 200 μM)?
A: 55.1 ± 0.02%

Q: And the viability at 24 h, 1 µM ([2]; Hek293T cells, 1 μM)?
A: 87 ± 0.08%

Q: What about the viability at 0.3 µM (Nalm-6; Nalm-6, 0.3 μM) of the same compound?
A: 97.9 ± 0.06%

Q: And the viability at 0.5 µM (Nalm-6; Nalm-6, 0.5 μM)?
A: 95.1 ± 0.03%

Q: What about the viability at 1 µM (Nalm-6; Nalm-6, 1 μM) of the same compound?
A: 95.1 ± 0.03%

Q: What about the viability at 3 µM (Nalm-6; Nalm-6, 3 μM) of the same compound?
A: 96 ± 0.03%

Q: And the viability at 5 µM (Nalm-6; Nalm-6, 5 μM)?
A: 95.6 ± 0.02%

Q: And the viability at 10 µM (Nalm-6; Nalm-6, 10 μM)?
A: 95.1 ± 0.02%

Q: And the viability at 15 µM (Nalm-6; Nalm-6, 15 μM)?
A: 95.9 ± 0.03%

Q: What about the viability at 20 µM (Nalm-6; Nalm-6, 20 μM) of the same compound?
A: 96.4 ± 0.03%

Q: What about the viability at 30 µM (Nalm-6; Nalm-6, 30 μM) of the same compound?
A: 96.5 ± 0.05%

Q: What about the viability at 50 µM (Nalm-6; Nalm-6, 50 μM) of the same compound?
A: 72.3 ± 0.02%

Q: And the viability at 70 µM (Nalm-6; Nalm-6, 70 μM)?
A: 71.8 ± 0.02%

Q: And the viability at 100 µM (Nalm-6; Nalm-6, 100 μM)?
A: 71.3 ± 0.02%

Q: What about the viability at 150 µM (Nalm-6; Nalm-6, 150 μM) of the same compound?
A: 70.2 ± 0.01%

Q: And the viability at 200 µM (Nalm-6; Nalm-6, 200 μM)?
A: 59.7 ± 0.02%

Q: And the viability at 0.3 µM (K562; K562, 0.3 μM)?
A: 84.6 ± 0.15%

Q: And the viability at 0.5 µM (K562; K562, 0.5 μM)?
A: 84.5 ± 0.08%

Q: What about the viability at 1 µM (K562; K562, 1 μM) of the same compound?
A: 84.4 ± 0.08%

Q: What about the viability at 3 µM (K562; K562, 3 μM) of the same compound?
A: 84.5 ± 0.1%

Q: And the viability at 5 µM (K562; K562, 5 μM)?
A: 82.9 ± 0.12%

Q: And the viability at 10 µM (K562; K562, 10 μM)?
A: 81.6 ± 0.05%

Q: What about the viability at 15 µM (K562; K562, 15 μM) of the same compound?
A: 80.1 ± 0.06%

Q: What about the viability at 20 µM (K562; K562, 20 μM) of the same compound?
A: 64 ± 0.07%

Q: And the viability at 30 µM (K562; K562, 30 μM)?
A: 63.9 ± 0.04%

Q: What about the viability at 50 µM (K562; K562, 50 μM) of the same compound?
A: 62.9 ± 0.06%

Q: What about the viability at 70 µM (K562; K562, 70 μM) of the same compound?
A: 62.3 ± 0.07%

Q: And the viability at 100 µM (K562; K562, 100 μM)?
A: 62.2 ± 0.05%

Q: What about the viability at 150 µM (K562; K562, 150 μM) of the same compound?
A: 61.6 ± 0.05%

Q: And the viability at 200 µM (K562; K562, 200 μM)?
A: 59.5 ± 0.07%
